Experimental data taken from publication PMC12248599, “Exploring the Bioavailability of Red Grape Skin Extract Polyphenols: A Caco-2 Cell Model Study” (Foods, 2025).
Where “and” joins values, the source holds several entries; their conditions need not be identical. Identical values can stand only once. Marks after values point to notes of the source that are not given here.

What was measured:
Caco-2 cell monolayer = experiment: Caco-2 monolayer transport (bioavailability) study, AB and BA directions; type: in vitro ADME, Homo sapiens; settings: for reduction in concentration on the apical (donor) side: 0 to 180 min; for TE (%) transport efficiency: after 180 min
Experimental: (§1) A reversed phase C18 column (Luna 5 μm C18(2) 100 Å, LC Column 250 × 4.6 mm, Phenomenex) was used to separate the polyphenols at a flow rate of 0.7 mL/min with an injection volume of 60 µL. The detection was carried out at 520 nm for anthocyanins (M3G, D3G and Pet3G), at 328 nm for CA, at 356 nm for flavonols (Q3G, K3Gal and K3G) and at 280 nm for GA and SA. The mobile phases were (A) acetonitrile 100% and (B) water 0.1% trifluoroacetic acid (v/v). The gradient was programmed as follows: 10% A 0 min, 10–80% A (0–20 min), 80–100% A (20–25 min), 100% A (25–30 min); 10% A (30–35 min) and 10% A (35–40 min). Every polyphenol was quantified using the corresponding reference standard calibration curve. Each of the quantified phenolic compound concentration was expressed as mg/mL
(§2) For the transport experiment Caco-2 cells were cultured at a density of 4 × 10^4 cells/cm^2 in Transwell inserts (12 mm i.d., 1.12 cm^2 growth area, 0.4 µm mean pore size polycarbonate membranes, Corning Inc., Milwaukee, WI, USA) placed in 12-well plates. Caco-2 cells were grown in DMEM in an incubator at 37 °C in a humidified atmosphere containing 5% CO2.
(§3) Bioavailability studies were performed in triplicate after 21 days of cell growth. Only inserts with stable TEER values higher than ≥300 Ω cm^2 were considered acceptable to perform the bioavailability study. For that purpose, DMEM media was removed, the monolayer was washed with PBS and HBSS was supplied to the cells.
(§4) Likewise, the GSE stock solution was diluted in HBSS medium to prepare GSE solutions S1 and S2. GSE solutions S1 and S2 had concentrations of 15 mg/mL and 22 mg/mL, respectively. These concentrations were established considering previous studies with grape pomace extracts that concluded that intestinal concentrations of 1–2% (w/v) show potential bioactivities and are safe to be used as a food ingredient.
(§5) The apical side represents the intestinal lumen and the basolateral side represents the bloodstream. Each sample (100 µL) was immediately acidified with 1M HCl to a final concentration of 0.007 M and subsequently frozen at −20 °C until analysis by HPLC (according to the method described in Section 2.5). Each experiment was carried out on 3 individual wells. The transport efficiency (TE) percentage was calculated according to Equation (2):Transport efficiency (%) = (C/C0) × 100(2) where, C is the polyphenol concentration at the acceptor side over time and C0 is the initial concentration at the donor side. TE values were calculated for the nine polyphenols identified in the grape skin extract.
(§6) The apparent permeability coefficient (Papp) of the polyphenols in GSE was calculated for apical to basolateral side (AB) and basolateral to apical side (BA) flux studies according to Equation (3):Papp (cm/s) = (dQ/dt) × (VR/AC0)(3) where, dQ/dt is the permeability rate which means the steady-state linear rate of change of concentration (mg/L) per second (s) at the acceptor side; A is the surface area of the cell monolayer (1.12 cm^2). C0 is the initial concentration at the donor side (mg/L) at t = 0 s and VR is the volume of the solution of the acceptor side (mL).
(§7) The efflux ratio (ER) of the polyphenol was assessed by calculating the Equation (4):ER = Papp (BA)/Papp (AB)(4) where, Papp (BA) is the apparent permeability coefficient of the polyphenol from basolateral to apical side and Papp (AB) is the apparent permeability coefficient from apical to basolateral side. ER is a measure of the relative contributions of active and passive transport to bi-direction flux across the cell monolayer.

[1] = as above; type: in vitro ADME, Homo sapiens; settings: human
Experimental: as §1, §2, §3, §4, §5, §6, §7

Caco-2 cells = settings: cited from earlier work
[2] = AB experiment, S2 (22 mg/mL GSE)
[3] = AB experiment, acceptor side, S2 (22 mg/mL GSE)
[4] = AB experiment, donor side, S1 (15 mg/mL GSE)
[5] = AB experiment, donor side, S2 (22 mg/mL GSE)
[6] = BA experiment, acceptor side, S1 (15 mg/mL GSE)
[7] = BA experiment, acceptor side, S2 (22 mg/mL GSE)
[8] = BA experiment, donor side, S1 (15 mg/mL GSE)
[9] = BA experiment, donor side, S2 (22 mg/mL GSE)

COc1cc(-c2[o+]c3cc(O)cc(O)c3cc2O[C@@H]2O[C@H](CO)[C@@H](O)[C@H](O)[C@H]2O)cc(OC)c1O [M3G, malvidin-3-O-glucoside]
reduction in concentration on the apical (donor) side (Caco-2 cell monolayer; AB experiment, S1 (15 mg/mL GSE)): 75 ± 2%
reduction in concentration on the apical (donor) side (Caco-2 cell monolayer; [2]): 58 ± 3%
TE (%) transport efficiency (Caco-2 cell monolayer; [2]): 1.08 ± 0.01%
Basolateral Side 180 min (Caco-2 cell monolayer; AB experiment, acceptor side, S1 (15 mg/mL GSE)): undetectable
Basolateral Side 75 min (Caco-2 cell monolayer; [3]): 0.12 ± 0.01 ^b mg/L
Basolateral Side 90 min (Caco-2 cell monolayer; [3]): 0.13 ± 0.01 ^c,d mg/L
Basolateral Side 115 min (Caco-2 cell monolayer; [3]): 0.14 ± 0.01 ^d,c mg/L
Basolateral Side 180 min (Caco-2 cell monolayer; [3]): 0.15 ± 0.01 ^c mg/L
Apical Side 0 min (Caco-2 cell monolayer; [4]): 6.1 ± 0.3 mg/L and 6.1 ± 0.3 ^a mg/L
Apical Side 75 min (Caco-2 cell monolayer; [4]): 4.5 ± 0.2 ^b mg/L
Apical Side 90 min (Caco-2 cell monolayer; [4]): 3.2 ± 0.1 ^c mg/L
Apical Side 115 min (Caco-2 cell monolayer; [4]): 2.26 ± 0.06 ^d mg/L
Apical Side 180 min (Caco-2 cell monolayer; [4]): 1.53 ± 0.04 mg/L and 1.53 ± 0.04 ^c mg/L
Apical Side 0 min (Caco-2 cell monolayer; [5]): 14 ± 1 ^a mg/L
Apical Side 75 min (Caco-2 cell monolayer; [5]): 11.6 ± 0.9 ^b mg/L
Apical Side 90 min (Caco-2 cell monolayer; [5]): 9.2 ± 0.9 ^c mg/L
Apical Side 115 min (Caco-2 cell monolayer; [5]): 7.2 ± 0.9 ^d mg/L
Apical Side 180 min (Caco-2 cell monolayer; [5]): 6.0 ± 0.8 mg/L and 6.0 ± 0.8 ^d mg/L
detection at the acceptor side (Caco-2 cell monolayer; AB experiments, basolateral side): detected
TE (%) transport efficiency (Caco-2 cell monolayer; BA experiment, S2 (22 mg/mL GSE)): 1.73 ± 0.04%
Apical Side 75 min (Caco-2 cell monolayer; [6]): 0.19 ± 0.02 ^a,b mg/L
Apical Side 90 min (Caco-2 cell monolayer; [6]): 0.23 ± 0.02 ^b,c mg/L
Apical Side 115 min (Caco-2 cell monolayer; [6]): 0.28 ± 0.02 ^c mg/L
Apical Side 180 min (Caco-2 cell monolayer; [6]): 0.33 ± 0.02 ^c mg/L
Apical Side 75 min (Caco-2 cell monolayer; [7]): 0.18 ± 0.01 ^b mg/L
Apical Side 90 min (Caco-2 cell monolayer; [7]): 0.22 ± 0.01 ^c mg/L
Apical Side 115 min (Caco-2 cell monolayer; [7]): 0.26 ± 0.01 ^d mg/L
Apical Side 180 min (Caco-2 cell monolayer; [7]): 0.30 ± 0.01 ^c mg/L
Basolateral Side 0 min (Caco-2 cell monolayer; [8]): 10.4 ± 0.7 ^a mg/L
Basolateral Side 75 min (Caco-2 cell monolayer; [8]): 9.7 ± 0.6 ^b mg/L
Basolateral Side 90 min (Caco-2 cell monolayer; [8]): 9.1 ± 0.6 ^c mg/L
Basolateral Side 115 min (Caco-2 cell monolayer; [8]): 8.5 ± 0.6 ^d mg/L
Basolateral Side 180 min (Caco-2 cell monolayer; [8]): 8.0 ± 0.6 ^c mg/L
Basolateral Side 0 min (Caco-2 cell monolayer; [9]): 17.5 ± 0.4 ^a mg/L
Basolateral Side 75 min (Caco-2 cell monolayer; [9]): 16.4 ± 0.4 ^b mg/L
Basolateral Side 90 min (Caco-2 cell monolayer; [9]): 15.4 ± 0.3 ^c mg/L
Basolateral Side 115 min (Caco-2 cell monolayer; [9]): 14.5 ± 0.3 ^c,d mg/L
Basolateral Side 180 min (Caco-2 cell monolayer; [9]): 13.7 ± 0.2 ^c mg/L
detection at the acceptor side (Caco-2 cell monolayer; BA experiments, apical side): detected
efflux ratio at 180 min, 22 mg/mL ([1]; Caco-2, Papp (BA)/Papp (AB), S2 (22 mg/mL GSE), read-out: ER (efflux ratio)): > 1
Papp A→B at 180 min, 22 mg/mL ([1]; Caco-2, apical to basolateral, S2 (22 mg/mL GSE)): 15 ± 1 ×10⁻⁶ cm/s
Papp B→A at 180 min, 15 mg/mL ([1]; Caco-2, basolateral to apical, S1 (15 mg/mL GSE)): 33 ± 2 ×10⁻⁶ cm/s
Papp B→A at 180 min, 22 mg/mL ([1]; Caco-2, basolateral to apical, S2 (22 mg/mL GSE)): 18 ± 1 ×10⁻⁶ cm/s
transepithelial transport M3G efficiency (Caco-2 cells; Caco-2 cells, rabbiteye blueberry extract, depending on initial extract concentration, after 2 h): 6.93–7.31%
M3G transport efficiency (Caco-2 cells; after 240 min): 0.35%
